# Laboratory results: patent US11572590B2, “Methods for evaluating tumor cell spheroids using 3D microfluidic cell culture device” (Dana-Farber Cancer Institute, Inc., priority 2017, dated 2023)
# Where two headings read alike, the source gives them in different places.
# What was measured:
# Assay in all cases: SelectScreen Kinase Profiling, single point inhibition and IC50 for off-target kinases
# Format in all cases: biochemical
# [1] = target: T1, off-target kinases (Homo sapiens, UniProt O00141); details: SGK (SGK1), ZLYTE, ATP Km app
# T1 sequence (O00141 1-431): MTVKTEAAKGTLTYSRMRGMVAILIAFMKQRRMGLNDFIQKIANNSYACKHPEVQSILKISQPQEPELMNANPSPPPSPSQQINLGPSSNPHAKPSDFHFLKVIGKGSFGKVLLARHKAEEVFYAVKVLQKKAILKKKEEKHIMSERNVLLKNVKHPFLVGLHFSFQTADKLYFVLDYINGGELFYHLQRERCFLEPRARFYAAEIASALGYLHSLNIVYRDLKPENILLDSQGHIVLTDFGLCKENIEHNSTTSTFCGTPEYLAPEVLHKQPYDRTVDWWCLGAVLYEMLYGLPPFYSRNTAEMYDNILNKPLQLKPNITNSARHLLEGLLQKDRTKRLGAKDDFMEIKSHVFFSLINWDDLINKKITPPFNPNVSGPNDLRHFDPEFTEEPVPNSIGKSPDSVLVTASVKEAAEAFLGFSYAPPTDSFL
# [2] = target: off-target kinases (Homo sapiens, UniProt P00519, E255K); details: ABL1 E255K, ATP Km app, ZLYTE
# [3] = target: T2, off-target kinases (Homo sapiens, UniProt P36896); details: ACVR1B (ALK4); Cmpd1 1000 μM; ATP Km app; ZLYTE
# T2 sequence (P36896 24-505): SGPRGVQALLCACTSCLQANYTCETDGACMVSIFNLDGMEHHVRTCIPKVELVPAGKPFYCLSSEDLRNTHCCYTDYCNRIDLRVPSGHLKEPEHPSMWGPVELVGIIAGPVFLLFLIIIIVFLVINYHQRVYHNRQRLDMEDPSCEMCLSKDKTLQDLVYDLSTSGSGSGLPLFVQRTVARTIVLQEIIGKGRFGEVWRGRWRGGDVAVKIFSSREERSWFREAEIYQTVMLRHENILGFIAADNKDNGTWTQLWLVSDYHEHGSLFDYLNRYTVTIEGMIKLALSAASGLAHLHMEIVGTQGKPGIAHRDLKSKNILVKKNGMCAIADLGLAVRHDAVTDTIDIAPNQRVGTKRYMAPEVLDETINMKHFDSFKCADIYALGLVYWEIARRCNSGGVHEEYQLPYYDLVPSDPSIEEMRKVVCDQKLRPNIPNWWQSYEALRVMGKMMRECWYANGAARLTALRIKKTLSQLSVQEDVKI
# [4] = target: T3, off-target kinases (Homo sapiens, UniProt Q96L34); details: MARK4, ATP Km app, ZLYTE
# T3 sequence (Q96L34 1-752): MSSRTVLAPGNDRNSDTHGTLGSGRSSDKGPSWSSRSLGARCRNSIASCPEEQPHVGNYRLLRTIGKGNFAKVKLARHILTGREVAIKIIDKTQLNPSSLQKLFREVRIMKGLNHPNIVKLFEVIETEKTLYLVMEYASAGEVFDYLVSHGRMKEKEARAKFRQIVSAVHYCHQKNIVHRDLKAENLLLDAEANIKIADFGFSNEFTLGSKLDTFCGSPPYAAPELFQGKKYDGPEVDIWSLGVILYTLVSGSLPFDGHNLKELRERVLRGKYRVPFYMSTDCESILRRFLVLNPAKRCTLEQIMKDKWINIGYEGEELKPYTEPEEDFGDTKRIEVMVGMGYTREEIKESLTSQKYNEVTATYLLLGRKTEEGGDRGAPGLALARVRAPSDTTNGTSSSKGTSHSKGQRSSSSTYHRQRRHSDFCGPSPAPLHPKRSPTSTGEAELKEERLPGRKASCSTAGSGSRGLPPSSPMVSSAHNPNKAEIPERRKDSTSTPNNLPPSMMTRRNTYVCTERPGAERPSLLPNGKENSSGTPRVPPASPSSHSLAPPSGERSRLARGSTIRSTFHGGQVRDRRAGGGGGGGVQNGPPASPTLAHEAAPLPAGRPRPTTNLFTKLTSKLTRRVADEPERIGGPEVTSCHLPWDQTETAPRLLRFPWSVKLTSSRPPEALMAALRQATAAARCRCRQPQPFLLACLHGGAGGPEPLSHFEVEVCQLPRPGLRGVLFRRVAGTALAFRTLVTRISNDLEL
# off-target kinases (Homo sapiens, UniProt P00519, E255K), sequence (P00519 whole entry E255K): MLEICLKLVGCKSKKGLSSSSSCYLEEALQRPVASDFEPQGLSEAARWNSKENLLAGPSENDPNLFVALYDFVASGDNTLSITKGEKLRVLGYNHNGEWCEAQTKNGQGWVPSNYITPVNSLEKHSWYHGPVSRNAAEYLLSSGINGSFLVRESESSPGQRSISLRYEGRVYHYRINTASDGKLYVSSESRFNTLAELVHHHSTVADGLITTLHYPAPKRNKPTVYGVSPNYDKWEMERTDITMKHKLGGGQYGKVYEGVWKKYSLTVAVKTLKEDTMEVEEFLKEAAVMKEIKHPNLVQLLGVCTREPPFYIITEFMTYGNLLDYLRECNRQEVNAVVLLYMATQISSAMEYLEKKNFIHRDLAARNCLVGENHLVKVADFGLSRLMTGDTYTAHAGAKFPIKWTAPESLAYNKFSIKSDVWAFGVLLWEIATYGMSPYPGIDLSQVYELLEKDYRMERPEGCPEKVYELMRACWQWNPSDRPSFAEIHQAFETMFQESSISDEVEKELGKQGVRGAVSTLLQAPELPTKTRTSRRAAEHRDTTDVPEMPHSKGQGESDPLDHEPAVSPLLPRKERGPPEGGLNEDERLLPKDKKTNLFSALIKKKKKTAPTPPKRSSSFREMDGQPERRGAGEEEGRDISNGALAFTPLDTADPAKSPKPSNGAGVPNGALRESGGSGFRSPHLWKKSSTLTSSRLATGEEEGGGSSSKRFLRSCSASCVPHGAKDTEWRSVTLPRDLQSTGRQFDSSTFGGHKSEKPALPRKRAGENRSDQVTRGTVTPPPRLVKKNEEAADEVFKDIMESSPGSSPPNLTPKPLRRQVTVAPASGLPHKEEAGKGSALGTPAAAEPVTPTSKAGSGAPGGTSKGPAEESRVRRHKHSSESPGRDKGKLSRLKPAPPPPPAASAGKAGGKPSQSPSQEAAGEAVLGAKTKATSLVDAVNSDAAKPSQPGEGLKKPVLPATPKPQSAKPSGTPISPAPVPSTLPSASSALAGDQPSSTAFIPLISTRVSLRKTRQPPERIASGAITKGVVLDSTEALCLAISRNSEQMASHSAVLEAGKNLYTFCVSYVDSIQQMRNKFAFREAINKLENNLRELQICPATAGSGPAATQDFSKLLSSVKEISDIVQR
compound,measurement,setting,value
"N#Cc1cc(-c2ncnc(Nc3ccc(N4CCN(C5COC5)CC4)cc3)n2)ccc1OC1CCOCC1 [Compound 1, 5-(4-((4-(4-(oxetan-3-yl)piperazin-1-yl)phenyl)amino)-1,3,5-triazin-2-yl)-2-((tetrahydro-2H-pyran-4-yl)oxy)benzonitrile]",inhibition,[1]; read-out: % Inhibition 1,28%
same,inhibition,[1]; read-out: % Inhibition 2,26%
same,inhibition,[1]; read-out: % Inhibition Avg,27%
same,inhibition,[2]; read-out: % Inhibition 1,53%
same,inhibition,[2]; read-out: % Inhibition 2,50%
same,inhibition,[2]; read-out: % Inhibition Avg,51%
same,% Inhibition 1,[3],−10%
same,% Inhibition 2,[3],−4%
same,% Inhibition Avg,[3],−7%
same,inhibition,[4]; read-out: % Inhibition 1,96%
same,inhibition,[4]; read-out: % Inhibition 2,93%
same,inhibition,[4]; read-out: % Inhibition Avg,95%
